Data on 10 compounds can be found in US20150148377A1, “Quinoline Derivatives” (NOVARTIS AG, priority 2011, published 2015).

For this experiment, the target named is T1, human phosphoinositide-3 kinase (PI3K) delta (Homo sapiens, UniProt O00329).
T1 construct: myristoylation signal (myristoylated form); expressed in transfected cells
T1 sequence (O00329 whole entry): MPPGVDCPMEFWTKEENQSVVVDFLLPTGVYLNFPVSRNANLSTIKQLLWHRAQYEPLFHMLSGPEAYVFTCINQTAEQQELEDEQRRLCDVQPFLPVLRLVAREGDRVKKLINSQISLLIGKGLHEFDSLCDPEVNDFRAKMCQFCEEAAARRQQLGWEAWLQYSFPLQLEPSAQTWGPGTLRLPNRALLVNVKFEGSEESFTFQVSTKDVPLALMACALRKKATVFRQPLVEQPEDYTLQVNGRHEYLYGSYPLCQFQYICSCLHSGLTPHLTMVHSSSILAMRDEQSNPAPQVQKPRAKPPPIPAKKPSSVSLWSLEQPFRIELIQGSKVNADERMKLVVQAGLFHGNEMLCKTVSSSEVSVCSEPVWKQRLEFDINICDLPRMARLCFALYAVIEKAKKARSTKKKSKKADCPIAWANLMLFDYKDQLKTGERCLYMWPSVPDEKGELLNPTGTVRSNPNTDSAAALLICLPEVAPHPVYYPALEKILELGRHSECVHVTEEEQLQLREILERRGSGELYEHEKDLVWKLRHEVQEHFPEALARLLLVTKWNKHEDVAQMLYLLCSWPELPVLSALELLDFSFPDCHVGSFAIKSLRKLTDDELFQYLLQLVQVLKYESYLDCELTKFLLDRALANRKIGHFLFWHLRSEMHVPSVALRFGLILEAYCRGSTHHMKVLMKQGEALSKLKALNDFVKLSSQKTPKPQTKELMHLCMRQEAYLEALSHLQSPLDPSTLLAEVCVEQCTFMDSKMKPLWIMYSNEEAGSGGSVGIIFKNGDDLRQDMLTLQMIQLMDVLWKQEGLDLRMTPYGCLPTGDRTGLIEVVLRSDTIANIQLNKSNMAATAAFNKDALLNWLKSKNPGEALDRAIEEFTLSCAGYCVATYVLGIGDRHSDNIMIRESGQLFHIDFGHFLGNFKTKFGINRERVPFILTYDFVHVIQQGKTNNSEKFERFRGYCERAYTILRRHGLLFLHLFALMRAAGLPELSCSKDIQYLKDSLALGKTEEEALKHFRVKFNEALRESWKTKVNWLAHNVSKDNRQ
T1 sequence (Q63787 whole entry partner): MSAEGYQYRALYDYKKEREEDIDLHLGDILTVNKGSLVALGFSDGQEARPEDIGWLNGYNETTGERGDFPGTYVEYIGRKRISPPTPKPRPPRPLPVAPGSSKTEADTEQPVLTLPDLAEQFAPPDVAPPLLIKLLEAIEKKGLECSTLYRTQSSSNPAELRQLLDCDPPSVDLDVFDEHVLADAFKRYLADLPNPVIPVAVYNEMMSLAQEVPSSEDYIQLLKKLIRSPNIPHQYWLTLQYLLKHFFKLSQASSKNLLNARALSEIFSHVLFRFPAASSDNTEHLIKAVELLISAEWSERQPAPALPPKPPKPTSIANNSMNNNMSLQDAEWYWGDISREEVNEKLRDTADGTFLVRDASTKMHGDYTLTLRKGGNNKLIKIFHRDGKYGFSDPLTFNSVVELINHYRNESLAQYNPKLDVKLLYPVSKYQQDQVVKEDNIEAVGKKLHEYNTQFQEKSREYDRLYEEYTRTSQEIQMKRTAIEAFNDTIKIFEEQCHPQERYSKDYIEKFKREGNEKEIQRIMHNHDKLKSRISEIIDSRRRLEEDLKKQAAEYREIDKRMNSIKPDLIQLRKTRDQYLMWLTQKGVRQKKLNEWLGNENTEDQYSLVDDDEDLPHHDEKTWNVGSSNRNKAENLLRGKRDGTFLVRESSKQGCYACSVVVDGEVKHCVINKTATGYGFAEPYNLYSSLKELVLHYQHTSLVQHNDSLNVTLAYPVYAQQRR
In words: PI3K-mediated Akt 1/2 (S473) phosphorylation in Rat-1 cells (Cell PI3Kδ). The format is cell-based. The settings on record: Rat-1 cells overexpressing myristoylated human PI3K delta; p-Akt (Ser473). Here is the method: 2.1 Phosphoinositide-3 kinase (PI3K)-mediated Akt 1/2 (S473) phosphorylation in Rat-1 cells
Rat-1 cells stably overexpressing a myristoylated form of the catalytic subunit of human phosphoinositide-3 kinase (PI3K) alpha, beta or delta were plated in 384-well plates at a density of 7500 (PI3K alpha), 6200 (PI3K beta), or 4000 (PI3K delta) cells in 30 ul complete growth medium (Dulbecco's modified Eagle's medium (DMEM high glucose) supplemented with 10% (v/v) fetal bovine serum, 1% (v/v) MEM non essential amino acids, 10 mM HEPES, 2 mM L-glutamine, 10 μg/mL puromycin and 1% (v/v) Penicillin/Streptomycin) and were incubated at […]/5% CO2/95% humidity for 24 h. Compounds were diluted in 384-well compound plates to obtain 8-point serial dilutions for 40 test compounds in 90% DMSO, as well as 4 reference compounds plus 16 high controls and 16 low (inhibited) controls. Predilution plates were prepared by dispensing pipetting 250 nl of compound solutions into 384-well polypropylen plates using a Hummingwell nanoliter dispensor. Compounds were prediluted by the addition of 49.75 ul complete growth medium. 10 ul of prediluted compound solution were transferred to the cell plate using a 384-well pipettor, resulting in a final DMSO concentration of 0.11%. Cells were incubated for 1 h at […]/5% CO2/95% humidity. The supernatant was removed, the cells were lysed in 20 ul of lysis buffer for AlphaScreen® SureFire® detection.
For detection of p-AKT(Ser473), the SureFire® p-Akt 1/2 (Ser473) Assay Kit (PerkinElmer, U.S.A) was used. 5 ul of cell lysate was transferred to 384-well low volume Proxiplates for detection using a 384-well pipettor. Addition of AlphaScreen® SureFire® reagents was done according to the manufacturer's protocol. First, 5 ul of reaction buffer plus activation buffer mix containing AlphaScreen® acceptor beads was added, the plate was sealed, and incubated on a plate shaker for 2 hours at room temperature. Second, 2 ul of dilution buffer containing AlphaScreen® donor beads was added, and the plate was incubated on plate shaker as above for a further 2 hours. The plate was read on an AlphaScreen® compatible plate reader, using standard AlphaScreen® settings.
Broadly, the IC50 is the concentration needed to halve the response being measured. Higher therefore signals lower potency. Regarding `COc1ncc(-c2ccnc3ccc(O[C@H]4CCN(C(=O)C5CCS(=O)(=O)CC5)C4)cc23)cc1Cl` [Example A1, {(S)-3-[4-(5-Chloro-6-methoxy-pyridin-3-yl)-quinolin-6-yloxy]-pyrrolidin-1-yl}-(1,1-dioxo-hexahydro-1lambda*6*-thiopyran-4-yl)-methanone], the IC50 was determined as 32 nM.

Compound `COc1ncc(-c2ccnc3ccc(O[C@H]4CCN(C(=O)C5CCS(=O)(=O)CC5)C4)cc23)cc1C(F)F` [Example A6, {(S)-3-[4-(5-Difluoromethyl-6-methoxy-pyridin-3-yl)-quinolin-6-yloxy]-pyrrolidin-1-yl}-(1,1-dioxo-hexahydro-1lambda*6*-thiopyran-4-yl)-methanone] yielded an IC50 of 78 nM.

Compound `COc1ncc(-c2ccnc3ccc(O[C@H]4CCN(C(=O)[C@@H]5CCN(C(C)=O)C5)C4)cc23)cc1C` [Example A10, 1-((R)-3-{(S)-3-[4-(6-Methoxy-5-methyl-pyridin-3-yl)-quinolin-6-yloxy]-pyrrolidine-1-carbonyl}-pyrrolidin-1-yl)-ethanone] had an IC50 of 16 nM.

In the case of `COc1ncc(-c2ccnc3ccc(O[C@H]4CCN(C(=O)C5CCS(=O)(=O)CC5)C4)cc23)cc1C` [Example A15, (1,1-Dioxo-hexahydro-1lambda*6*-thiopyran-4-yl)-{(S)-3-[4-(6-methoxy-5-methyl-pyridin-3-yl)-quinolin-6-yloxy]-pyrrolidin-1-yl}-methanone], the IC50 was determined as 52 nM.

For the compound `COc1ncc(-c2ccnc3ccc(O[C@H]4CCN(C(=O)[C@@H]5CCN(C(C)=O)C5)C4)cc23)cc1C(F)F` [Example A24, 1-((R)-3-{(S)-3-[4-(5-Difluoromethyl-6-methoxy-pyridin-3-yl)-quinolin-6-yloxy]-pyrrolidine-1-carbonyl}-pyrrolidin-1-yl)-ethanone], it took 14 nM to reach half-maximal inhibition (IC50).

The compound `CCC(=O)N1CC[C@H](Oc2ccc3nccc(-c4cnc(S(C)(=O)=O)c(C)c4)c3c2)C1` [Example A25, 1-{(S)-3-[4-(6-Methanesulfonyl-5-methyl-pyridin-3-yl)-quinolin-6-yloxy]-pyrrolidin-1-yl}-propan-1-one] displayed an IC50 of 260 nM.

Turning to `COc1ncc(-c2ccnc3ccc(O[C@H]4CCN(C(=O)[C@@H]5CCN(C(C)=O)C5)C4)c(C)c23)cc1C(F)F` [Example B1, 1-((R)-3-{(S)-3-[4-(5-Difluoromethyl-6-methoxy-pyridin-3-yl)-5-methylquinolin-6-yloxy]-pyrrolidine-1-carbonyl}-pyrrolidin-1-yl)-ethanone], half-maximal inhibition (IC50) was put at 14 nM.

As for `COc1ncc(-c2ccnc3ccc(O[C@H]4CCN(C(=O)C5CCS(=O)(=O)CC5)C4)c(C)c23)cc1C` [Example B3, (1,1-Dioxo-hexahydro-1lambda*6*-thiopyran-4-yl)-{(S)-3-[4-(6-methoxy-5-methyl-pyridin-3-yl)-5-methyl-quinolin-6-yloxy]-pyrrolidin-1-yl}-methanone], the IC50 was 105 nM.

In turn, `COc1ncc(-c2ccnc3cc(F)c(O[C@H]4CCN(C(=O)C5CCS(=O)(=O)CC5)C4)cc23)cc1C` [Example C1, (1,1-Dioxo-hexahydro-1lambda*6*-thiopyran-4-yl)-{(S)-3-[7-fluoro-4-(6-methoxy-5-methyl-pyridin-3-yl)-quinolin-6-yloxy]-pyrrolidin-1-yl}-methanone] showed an IC50 of 246 nM.

Compound `Cc1cc(-c2ccnc3cc(F)c(O[C@H]4CCN(C(=O)C5CCOCC5)C4)cc23)cnc1S(C)(=O)=O` [Example C2, {(S)-3-[7-Fluoro-4-(6-methanesulfonyl-5-methyl-pyridin-3-yl)-quinolin-6-yloxy]-pyrrolidin-1-yl}-(tetrahydro-pyran-4-yl)-methanone] displayed an IC50 of 116 nM.
